Reference: patent US4439426A, “Semisynthetic macrolidic antibiotics, intermediate compounds for their preparation and related pharmaceutical compositions containing them” (priority 1981, dated 1984)
Values after ≈ are worked out from the molar mass of the structure shown.

Experiments:
[1] = tested on: Streptococcus faecalis subs. zymogenes LRP 61; assay: Minimum bactericidal concentration (MBC); assay type: cell-based
Excerpt: (§1) the bacterial power, expressed as the minimum bactericidal power (MBC) against some Gram positive aerobic stocks (table 5).

[2] = tested on: Staphylococcus aureus ATCC 6538 P LRP 39; assay: Minimum bactericidal concentration (MBC); assay type: cell-based
Excerpt: as §1

[3] = tested on: Corynebacterium diphteriae LRP 24; assay: Minimum bactericidal concentration (MBC); assay type: cell-based
Excerpt: as §1

[4] = tested on: Streptococcus pneumoniae ATCC 6303 LRP 35; assay: Minimum bactericidal concentration (MBC); assay type: cell-based
Excerpt: as §1

[5] = tested on: Streptococcus pyogenes ATCC 8668 LRP 34; assay: Minimum bactericidal concentration (MBC); assay type: cell-based
Excerpt: as §1

[6] = tested on: Staphylococcus aureus ATCC 6538P LRP 39; assay: Bacteriostatic power in solid medium (MIC); assay type: cell-based; details: Staphylococcus aureus, ATCC6538P; solid medium; read-out: Minimum inhibiting concentration
Excerpt: (§2) the bacteriostatic power, expressed as the minimum inhibiting concentration (MIC) against both aerobic and anaerobic, Gram positive and Gram negative, bacterial stocks: the related results are reported in the tables 2 and 3.

[7] = tested on: Neisseria gonorrhoeae ATCC 19424 LRP 214; assay: Bacteriostatic power in solid medium (MIC); assay type: cell-based; details: Neisseria gonorrhoeae, ATCC19424; solid medium; read-out: Minimum inhibiting concentration
Excerpt: as §2

[8] = tested on: Micrococcus luteus ATCC 15957 LRP 193; assay: Bacteriostatic power in solid medium (MIC); assay type: cell-based; details: Micrococcus luteus, ATCC15957; solid medium; Erythromycin resistant; read-out: Minimum inhibiting concentration
Excerpt: as §2

[9] = tested on: Streptococcus faecalis subsp. zymogenes ATCC 12958 LRP 61; assay: Bacteriostatic power in solid medium (MIC); assay type: cell-based; details: Enterococcus faecalis, ATCC12958; solid medium; read-out: Minimum inhibiting concentration
Excerpt: as §2

[10] = tested on: Micrococcus luteus ATCC 9341 LRP 6; assay: Bacteriostatic power in solid medium (MIC); assay type: cell-based; details: Micrococcus luteus, ATCC9341; solid medium; read-out: Minimum inhibiting concentration
Excerpt: as §2

[11] = tested on: Streptococcus pneumoniae ATCC 6303 LRP 53; assay: Bacteriostatic power in solid medium (MIC); assay type: cell-based; details: Streptococcus pneumoniae, ATCC6303; solid medium; read-out: Minimum inhibiting concentration
Excerpt: as §2

[12] = tested on: Streptococcus faecalis LRP 7; assay: Bacteriostatic power in solid medium (MIC); assay type: cell-based; details: Enterococcus faecalis, LRP7; solid medium; read-out: Minimum inhibiting concentration
Excerpt: as §2

[13] = tested on: Staphylococcus aureus ATCC 14154 LRP 78; assay: Bacteriostatic power in solid medium (MIC); assay type: cell-based; details: Staphylococcus aureus, ATCC14154; solid medium; Erythromycin resistant; read-out: Minimum inhibiting concentration
Excerpt: as §2

[14] = tested on: Mycoplasma hominis I ATCC 14027 LRP 211; assay: Bacteriostatic power in solid medium (MIC); assay type: cell-based; details: Metamycoplasma hominis, ATCC14027; solid medium; read-out: Minimum inhibiting concentration
Excerpt: as §2

[15] = tested on: Corynebacterium diphteriae LRP 24; assay: Bacteriostatic power in solid medium (MIC); assay type: cell-based; details: Corynebacterium, LRP24; solid medium; read-out: Minimum inhibiting concentration
Excerpt: as §2

[16] = tested on: Pseudomonas aeruginosa LRP 9; assay: Bacteriostatic power in solid medium (MIC); assay type: cell-based; details: Pseudomonas aeruginosa, LRP9; solid medium; read-out: Minimum inhibiting concentration
Excerpt: as §2

[17] = tested on: Staphylococcus aureus ATCC 6538P LRP 14; assay: Bacteriostatic power in solid medium (MIC); assay type: cell-based; details: Staphylococcus aureus, ATCC6538P; solid medium; Penycilline resistant; read-out: Minimum inhibiting concentration
Excerpt: as §2

[18] = tested on: Streptococcus pneumoniae ATCC 6303 LRP 35; assay: Bacteriostatic power in solid medium (MIC); assay type: cell-based; details: Streptococcus pneumoniae, ATCC6303; solid medium; read-out: Minimum inhibiting concentration
Excerpt: as §2

[19] = tested on: Acholeplasma laidlawii ATCC 23206 LRP 204; assay: Bacteriostatic power in solid medium (MIC); assay type: cell-based; details: Acholeplasma laidlawii, ATCC23206; solid medium; read-out: Minimum inhibiting concentration
Excerpt: as §2

[20] = tested on: Shigella sonnei LRP 5; assay: Bacteriostatic power in solid medium (MIC); assay type: cell-based; details: LRP5, read-out: Minimum inhibiting concentration
Excerpt: as §2

[21] = tested on: Streptococcus pyogenes ATCC 8668 LRP 34; assay: Bacteriostatic power in solid medium (MIC); assay type: cell-based; details: Streptococcus pyogenes, ATCC8668; solid medium; read-out: Minimum inhibiting concentration
Excerpt: as §2

[22] = tested on: Haemophilus influenzae ATCC 19418 LRP 213; assay: Bacteriostatic power in solid medium (MIC); assay type: cell-based; details: Haemophilus influenzae, ATCC19418; solid medium; read-out: Minimum inhibiting concentration
Excerpt: as §2

[23] = tested on: Bacillus subtilis LRP 25; assay: Bacteriostatic power in solid medium (MIC); assay type: cell-based; details: Bacillus subtilis, LRP25; solid medium; read-out: Minimum inhibiting concentration
Excerpt: as §2

[24] = tested on: Streptococcus pneumoniae ATCC 6303 LRP 52; assay: Bacteriostatic power in solid medium (MIC); assay type: cell-based; details: Streptococcus pneumoniae, ATCC6303; solid medium; read-out: Minimum inhibiting concentration
Excerpt: as §2

[25] = tested on: Streptococcus pyogenes ATCC 8668 LRP 197; assay: Bacteriostatic power in solid medium (MIC); assay type: cell-based; details: Streptococcus pyogenes, ATCC8668; solid medium; read-out: Minimum inhibiting concentration
Excerpt: as §2

[26] = tested on: Proteus vulgaris ATCC 6380 LRP 13; assay: Bacteriostatic power in solid medium (MIC); assay type: cell-based; details: Proteus vulgaris, ATCC6380; solid medium; read-out: Minimum inhibiting concentration
Excerpt: as §2

[27] = tested on: Bacteroides fragilis ATCC 23745 LRP 205; assay: Bacteriostatic power in solid medium (MIC); assay type: cell-based; details: Bacteroides fragilis, ATCC23745; solid medium; anaerobic; read-out: Minimum inhibiting concentration
Excerpt: as §2

[28] = tested on: Fusobacteriumnecrophroum ATCC 27852 LRP 210; assay: Bacteriostatic power in solid medium (MIC); assay type: cell-based; details: solid medium; anaerobic; read-out: Minimum inhibiting concentration
Excerpt: as §2

[29] = tested on: Klelsiella pneumoniae LRP 54; assay: Bacteriostatic power in solid medium (MIC); assay type: cell-based; details: solid medium; read-out: Minimum inhibiting concentration
Excerpt: as §2

[30] = tested on: Escherichia coli LRP 50; assay: Bacteriostatic power in solid medium (MIC); assay type: cell-based; details: Escherichia coli, LRP50; solid medium; read-out: Minimum inhibiting concentration
Excerpt: as §2

[31] = tested on: Staphylococcus aureus ATCC 6538 P LRP 39; assay: Bacteriostatic power in liquid medium (MIC); assay type: cell-based; details: Staphylococcus aureus, ATCC6538; liquid medium; read-out: Minimum inhibiting concentration
Excerpt: as §2

[32] = tested on: Corynebacterium diphteriae LRP 24; assay: Bacteriostatic power in liquid medium (MIC); assay type: cell-based; details: Corynebacterium, LRP24; liquid medium; read-out: Minimum inhibiting concentration
Excerpt: as §2

[33] = tested on: Streptococcus pneumoniae ATCC 6303 LRP 35; assay: Bacteriostatic power in liquid medium (MIC); assay type: cell-based; details: Streptococcus pneumoniae, ATCC6303; liquid medium; read-out: Minimum inhibiting concentration
Excerpt: as §2

[34] = tested on: Streptococcus faecalis subs. zymogenes ATCC 12958 LRP 61; assay: Bacteriostatic power in liquid medium (MIC); assay type: cell-based; details: Enterococcus faecalis, ATCC12958; liquid medium; read-out: Minimum inhibiting concentration
Excerpt: as §2

[35] = tested on: Streptococcus pyogenes ATCC 8668 LRP 34; assay: Bacteriostatic power in liquid medium (MIC); assay type: cell-based; details: Streptococcus pyogenes, ATCC8668; liquid medium; read-out: Minimum inhibiting concentration
Excerpt: as §2

[36] = Stability in acidic environment at 25° C. (half-life of initial microbiological activity); assay type: physicochemical; details: aqueous solution
Description: Stability in acidic environnment at 25° C. of the novel
Note: t 1/2 represents the time for reducing to one half the initial powe
of the antibiotic determined by microbiological method through diffusion
on a plate using the test stock Microccocus luteus (Sarcina lutea) ATCC

[37] = tested on: Salmonella typhy LRP 8; assay: microbe, parasite or virus in culture; assay type: cell-based; details: LRP8, solid medium, read-out: Minimum inhibiting concentration
Excerpt: as §2

[38] = tested on: Clostridium perfrigens ATCC 3624 LRP 206; assay: microbe, parasite or virus in culture; assay type: cell-based; details: ATCC3624, solid medium, anaerobic, read-out: Minimum inhibiting concentration
Excerpt: as §2

SMILES: CC[C@H]1OC(=O)[C@H](C)[C@@H](O[C@H]2C[C@@](C)(OC)[C@@H](O)[C@H](C)O2)[C@H](C)[C@@H](O[C@@H]2O[C@H](C)C[C@H](N(C)C)[C@H]2O)[C@](C)(O)C[C@](C)(F)C(=O)[C@H](C)[C@@H](O)[C@H]1C [P-80203, (8S)-8-fluoroerythromycin B]
- MBC/MIC [1]: 8
- MBC ([1]; Enterococcus faecalis, read-out: Minimum bactericidal concentration (MBC)): 3.12 µg/mL (≈ 4.24 µM)
- MBC/MIC [2]: 32
- MBC ([2]; Staphylococcus aureus, ATCC6538, read-out: Minimum bactericidal concentration (MBC)): 3.12 µg/mL (≈ 4.24 µM)
- MBC/MIC [3]: 4
- MBC ([3]; Corynebacterium, LRP24, read-out: Minimum bactericidal concentration (MBC)): 0.049 µg/mL (≈ 0.0666 µM)
- MBC/MIC [4]: 1
- MBC ([4]; Streptococcus pneumoniae, ATCC6303, read-out: Minimum bactericidal concentration (MBC)): 0.049 µg/mL (≈ 0.0666 µM)
- MBC/MIC [5]: 8
- MBC ([5]; Streptococcus pyogenes, ATCC8668, read-out: Minimum bactericidal concentration (MBC)): 0.195 µg/mL (≈ 0.265 µM)
- MIC [6]: 0.097 µg/mL (≈ 0.132 µM)
- MIC [7]: 0.097 µg/mL (≈ 0.132 µM)
- MIC [8]: 25 µg/mL (≈ 34 µM)
- MIC [9]: 0.195 µg/mL (≈ 0.265 µM)
- MIC [10]: 0.012 µg/mL (≈ 0.0163 µM)
- MIC [11]: 0.024 µg/mL (≈ 0.0326 µM)
- MIC [12]: 0.195 µg/mL (≈ 0.265 µM)
- MIC [13]: 25 µg/mL (≈ 34 µM)
- MIC [14]: 25 µg/mL (≈ 34 µM)
- MIC [15]: 0.006 µg/mL (≈ 0.00815 µM)
- MIC [16]: 25 µg/mL (≈ 34 µM)
- MIC [17]: 0.097 µg/mL (≈ 0.132 µM)
- MIC [18]: 0.049 µg/mL (≈ 0.0666 µM)
- MIC [19]: 0.195 µg/mL (≈ 0.265 µM)
- MIC [20]: 25 µg/mL (≈ 34 µM)
- MIC [21]: 0.024 µg/mL (≈ 0.0326 µM)
- MIC [22]: 6.25 µg/mL (≈ 8.49 µM)
- MIC [23]: 0.049 µg/mL (≈ 0.0666 µM)
- MIC [24]: 0.024 µg/mL (≈ 0.0326 µM)
- MIC [25]: 0.049 µg/mL (≈ 0.0666 µM)
- MIC [26]: 25 µg/mL (≈ 34 µM)
- MIC [27]: 0.195 µg/mL (≈ 0.265 µM)
- MIC [28]: 3.12 µg/mL (≈ 4.24 µM)
- MIC [29]: 25 µg/mL (≈ 34 µM)
- MIC [30]: 25 µg/mL (≈ 34 µM)
- MIC [31]: 0.097 µg/mL (≈ 0.132 µM)
- MIC [32]: 0.012 µg/mL (≈ 0.0163 µM)
- MIC [33]: 0.049 µg/mL (≈ 0.0666 µM)
- MIC [34]: 0.39 µg/mL (≈ 0.53 µM)
- MIC [35]: 0.024 µg/mL (≈ 0.0326 µM)
- half-life ([36]; pH 2): 3 h
- half-life ([36]; pH 3): 45 h
- MIC [37]: 25 µg/mL (≈ 34 µM)
- MIC [38]: 0.39 µg/mL (≈ 0.53 µM)
